According to paper PMC11167047 (Cell Death Discovery, 2024):

Key:
Test in all cases: kinome screen (33PanQinase)
Assay type in all cases: biochemical
[1] = target: T1, EPHA8 (Homo sapiens, UniProt P29322)
T1 construct: purchased Reaction Biology Europe GmbH (formerly ProQinase)
T1 sequence (P29322 28-1005): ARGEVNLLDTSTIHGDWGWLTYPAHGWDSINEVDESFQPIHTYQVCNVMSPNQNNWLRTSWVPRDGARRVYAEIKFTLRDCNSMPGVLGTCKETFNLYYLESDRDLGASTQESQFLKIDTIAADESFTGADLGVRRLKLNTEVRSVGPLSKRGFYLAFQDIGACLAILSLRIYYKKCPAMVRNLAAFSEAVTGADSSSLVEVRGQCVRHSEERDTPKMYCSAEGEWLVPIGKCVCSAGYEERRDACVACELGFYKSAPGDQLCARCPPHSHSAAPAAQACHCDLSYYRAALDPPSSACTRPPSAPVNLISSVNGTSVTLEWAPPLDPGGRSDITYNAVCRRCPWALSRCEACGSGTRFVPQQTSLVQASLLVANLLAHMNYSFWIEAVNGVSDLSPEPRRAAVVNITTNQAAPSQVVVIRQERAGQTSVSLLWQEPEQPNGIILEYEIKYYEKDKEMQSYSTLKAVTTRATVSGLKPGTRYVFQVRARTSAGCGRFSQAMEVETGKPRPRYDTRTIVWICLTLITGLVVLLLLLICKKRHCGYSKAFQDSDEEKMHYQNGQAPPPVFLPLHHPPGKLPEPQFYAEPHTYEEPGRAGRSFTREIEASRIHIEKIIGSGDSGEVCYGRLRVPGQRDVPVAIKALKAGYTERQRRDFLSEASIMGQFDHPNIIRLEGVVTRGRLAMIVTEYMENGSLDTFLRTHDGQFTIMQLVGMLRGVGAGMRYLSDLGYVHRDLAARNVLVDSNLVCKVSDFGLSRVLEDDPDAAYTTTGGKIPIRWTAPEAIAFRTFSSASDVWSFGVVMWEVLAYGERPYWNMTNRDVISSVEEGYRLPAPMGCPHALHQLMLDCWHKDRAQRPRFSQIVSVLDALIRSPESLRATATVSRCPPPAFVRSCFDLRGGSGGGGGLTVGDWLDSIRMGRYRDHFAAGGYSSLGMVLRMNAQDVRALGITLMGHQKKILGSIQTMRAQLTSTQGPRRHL
Protocol: (§1) The Kinome Screening was performed by Reaction Biology Europe GmbH (http://reactionbiology.com; Freiburg i. Br., Germany).

[2] = target: T2, BRSK2 (Homo sapiens, UniProt Q8IWQ3)
T2 construct: purchased Reaction Biology Europe GmbH (formerly ProQinase)
T2 sequence (Q8IWQ3 1-736): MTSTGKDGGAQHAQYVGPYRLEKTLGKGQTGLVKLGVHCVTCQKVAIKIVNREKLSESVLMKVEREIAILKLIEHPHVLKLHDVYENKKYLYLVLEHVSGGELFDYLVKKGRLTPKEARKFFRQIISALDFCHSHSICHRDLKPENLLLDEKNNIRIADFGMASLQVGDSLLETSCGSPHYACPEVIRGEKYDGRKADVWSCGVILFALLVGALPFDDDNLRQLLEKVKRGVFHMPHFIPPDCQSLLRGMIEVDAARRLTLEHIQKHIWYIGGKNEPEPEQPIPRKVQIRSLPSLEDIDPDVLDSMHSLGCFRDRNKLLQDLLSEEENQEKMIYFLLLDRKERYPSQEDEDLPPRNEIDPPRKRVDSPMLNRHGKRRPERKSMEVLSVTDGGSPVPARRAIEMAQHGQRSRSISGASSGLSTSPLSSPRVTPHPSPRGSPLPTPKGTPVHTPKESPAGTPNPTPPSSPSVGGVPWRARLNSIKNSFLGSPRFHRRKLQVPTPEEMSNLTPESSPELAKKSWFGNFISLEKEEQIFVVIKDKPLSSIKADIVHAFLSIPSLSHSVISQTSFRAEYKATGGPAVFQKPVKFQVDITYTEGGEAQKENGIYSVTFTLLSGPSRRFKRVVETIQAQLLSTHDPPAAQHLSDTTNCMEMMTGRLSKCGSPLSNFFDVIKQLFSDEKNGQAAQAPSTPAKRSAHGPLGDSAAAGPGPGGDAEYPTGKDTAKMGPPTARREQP
Protocol: as §1

[3] = target: T3, CDK12/CycK (Homo sapiens, UniProt Q9NYV4)
T3 construct: purchased Reaction Biology Europe GmbH (formerly ProQinase)
T3 sequence (Q9NYV4 whole entry): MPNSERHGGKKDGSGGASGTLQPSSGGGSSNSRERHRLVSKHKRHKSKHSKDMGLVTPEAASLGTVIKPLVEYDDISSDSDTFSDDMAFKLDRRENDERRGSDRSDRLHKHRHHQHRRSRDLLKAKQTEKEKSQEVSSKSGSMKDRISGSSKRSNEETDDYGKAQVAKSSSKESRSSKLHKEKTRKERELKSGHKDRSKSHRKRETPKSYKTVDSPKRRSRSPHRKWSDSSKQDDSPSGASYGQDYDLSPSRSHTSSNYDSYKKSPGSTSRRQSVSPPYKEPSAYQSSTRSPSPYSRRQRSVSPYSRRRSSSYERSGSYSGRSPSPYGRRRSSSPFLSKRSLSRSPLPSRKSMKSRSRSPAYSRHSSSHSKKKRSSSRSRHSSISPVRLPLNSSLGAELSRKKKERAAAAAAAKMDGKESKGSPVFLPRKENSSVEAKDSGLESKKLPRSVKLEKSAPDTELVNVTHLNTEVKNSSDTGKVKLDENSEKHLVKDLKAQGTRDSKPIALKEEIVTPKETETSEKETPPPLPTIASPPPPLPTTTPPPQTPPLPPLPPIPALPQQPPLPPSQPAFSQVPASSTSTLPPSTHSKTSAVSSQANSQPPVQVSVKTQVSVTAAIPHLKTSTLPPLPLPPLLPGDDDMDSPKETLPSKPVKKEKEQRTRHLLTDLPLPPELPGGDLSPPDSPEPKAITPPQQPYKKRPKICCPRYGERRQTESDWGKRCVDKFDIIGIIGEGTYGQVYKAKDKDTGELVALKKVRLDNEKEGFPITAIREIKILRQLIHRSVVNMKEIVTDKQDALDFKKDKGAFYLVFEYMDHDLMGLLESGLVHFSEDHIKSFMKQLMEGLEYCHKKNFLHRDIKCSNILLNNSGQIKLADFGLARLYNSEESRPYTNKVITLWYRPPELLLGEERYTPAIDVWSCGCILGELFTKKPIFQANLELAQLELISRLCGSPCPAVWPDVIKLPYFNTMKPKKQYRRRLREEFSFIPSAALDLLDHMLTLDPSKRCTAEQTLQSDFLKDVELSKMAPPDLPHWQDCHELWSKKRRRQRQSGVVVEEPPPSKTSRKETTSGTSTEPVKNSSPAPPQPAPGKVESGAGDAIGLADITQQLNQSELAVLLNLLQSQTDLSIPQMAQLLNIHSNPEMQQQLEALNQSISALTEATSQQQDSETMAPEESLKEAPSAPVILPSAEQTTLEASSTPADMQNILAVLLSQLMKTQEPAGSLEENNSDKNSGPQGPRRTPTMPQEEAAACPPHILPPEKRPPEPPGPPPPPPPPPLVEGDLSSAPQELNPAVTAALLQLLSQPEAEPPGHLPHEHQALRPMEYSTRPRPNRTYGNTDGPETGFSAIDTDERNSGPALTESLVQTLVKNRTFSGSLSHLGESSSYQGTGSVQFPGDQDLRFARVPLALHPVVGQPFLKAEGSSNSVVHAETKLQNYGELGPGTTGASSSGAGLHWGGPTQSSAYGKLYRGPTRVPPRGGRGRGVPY
T3 sequence (O75909 whole entry partner): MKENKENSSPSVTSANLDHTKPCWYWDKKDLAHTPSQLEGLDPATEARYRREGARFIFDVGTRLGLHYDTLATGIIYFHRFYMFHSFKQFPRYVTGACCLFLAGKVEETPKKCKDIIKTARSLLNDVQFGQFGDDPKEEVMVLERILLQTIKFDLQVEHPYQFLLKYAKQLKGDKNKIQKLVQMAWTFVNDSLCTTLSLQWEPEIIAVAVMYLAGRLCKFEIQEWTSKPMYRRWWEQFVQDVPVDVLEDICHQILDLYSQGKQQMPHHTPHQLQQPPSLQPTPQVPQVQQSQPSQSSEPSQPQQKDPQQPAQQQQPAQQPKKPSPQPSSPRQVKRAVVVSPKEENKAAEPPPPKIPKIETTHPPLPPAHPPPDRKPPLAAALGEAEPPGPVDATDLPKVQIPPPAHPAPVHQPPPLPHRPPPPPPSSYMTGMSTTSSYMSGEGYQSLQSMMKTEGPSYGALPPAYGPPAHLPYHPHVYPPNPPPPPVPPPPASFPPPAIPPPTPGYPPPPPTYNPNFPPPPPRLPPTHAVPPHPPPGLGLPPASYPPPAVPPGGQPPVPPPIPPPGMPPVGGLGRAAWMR
Protocol: as §1

[4] = target: T4, TAOK3 (Homo sapiens, UniProt Q9H2K8)
T4 construct: purchased Reaction Biology Europe GmbH (formerly ProQinase)
T4 sequence (Q9H2K8 1-898): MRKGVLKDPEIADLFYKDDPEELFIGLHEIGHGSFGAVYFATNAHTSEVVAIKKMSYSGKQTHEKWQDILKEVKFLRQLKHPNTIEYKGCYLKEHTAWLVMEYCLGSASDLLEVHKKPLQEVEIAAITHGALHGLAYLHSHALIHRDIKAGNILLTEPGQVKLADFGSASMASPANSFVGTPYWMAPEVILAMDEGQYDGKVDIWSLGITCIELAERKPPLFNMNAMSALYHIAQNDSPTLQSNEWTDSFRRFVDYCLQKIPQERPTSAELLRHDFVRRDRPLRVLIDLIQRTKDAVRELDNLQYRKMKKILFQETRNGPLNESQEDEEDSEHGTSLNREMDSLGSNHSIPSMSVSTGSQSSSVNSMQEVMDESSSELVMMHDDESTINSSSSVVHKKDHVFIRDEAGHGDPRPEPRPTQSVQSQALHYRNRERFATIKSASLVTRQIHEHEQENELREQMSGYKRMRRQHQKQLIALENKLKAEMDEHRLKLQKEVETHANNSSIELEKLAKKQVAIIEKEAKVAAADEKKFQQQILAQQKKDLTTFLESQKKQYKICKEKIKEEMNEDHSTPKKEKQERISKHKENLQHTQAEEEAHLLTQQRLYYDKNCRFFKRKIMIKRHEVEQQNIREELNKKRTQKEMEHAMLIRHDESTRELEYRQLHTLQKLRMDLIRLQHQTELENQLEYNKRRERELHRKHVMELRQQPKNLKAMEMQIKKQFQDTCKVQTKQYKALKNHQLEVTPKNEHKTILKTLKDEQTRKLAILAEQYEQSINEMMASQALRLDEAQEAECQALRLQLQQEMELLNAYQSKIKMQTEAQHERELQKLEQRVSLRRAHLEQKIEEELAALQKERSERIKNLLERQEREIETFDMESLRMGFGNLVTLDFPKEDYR
Protocol: as §1

COc1ccnc2[nH]cc(-c3cc(N)nc(N)c3)c12 [meriolin 16]
residual kinase activity ([1]; 0.03 µM): 119 % of control | residual kinase activity ([1]; 0.3 µM): 107 % of control | residual kinase activity ([2]; 0.03 µM): 111 % of control | residual kinase activity ([2]; 0.3 µM): 92 % of control | residual kinase activity ([3]; 0.03 µM): 21 % of control | residual kinase activity ([3]; 0.3 µM): 1 % of control | residual kinase activity ([4]; 0.03 µM): 111 % of control | residual kinase activity ([4]; 0.3 µM): 91 % of control

c1ccc(CNc2cc(-c3c[nH]c4ncccc34)ccn2)cc1 [meriolin 36]
residual kinase activity ([1]; 0.3 µM): 113 % of control | residual kinase activity ([1]; 3 µM): 94 % of control | residual kinase activity ([2]; 0.3 µM): 112 % of control | residual kinase activity ([2]; 3 µM): 61 % of control | residual kinase activity ([3]; 0.3 µM): 1 % of control | residual kinase activity ([3]; 3 µM): 2 % of control | residual kinase activity ([4]; 0.3 µM): 44 % of control | residual kinase activity ([4]; 3 µM): 6 % of control
